# Data as given in PMC11203957, “Naphthoquinone-Quinolone Hybrids with Antitumor Effects on Breast Cancer Cell Lines—From the Synthesis to 3D-Cell Culture Effects” (International Journal of Molecular Sciences, 2024).
# Legend:
# [1] = test system: refractory invasive prostate cancer cells (DU145); parameters: method as in PMID 18974148; conditions: cited from earlier work
# [2] = test system: tumor; parameters: method as in PMID 18974148; conditions: 2 mg/kg (body weight), three weeks of treatment; cited from earlier work
# [3] = test system: non-tumorigenic prostate epithelial cells (RWPE-1); conditions: cited from earlier work
# [4] = test system: human gastric cancer cells (MKN-74); parameters: method as in PMID 23651559, PMID 25457491; conditions: cited from earlier work
# [5] = test system: colorectal cancer cells (HCT-15); parameters: method as in PMID 23651559, PMID 25457491; conditions: cited from earlier work
# [6] = test system: MKN-74 cocultured with stromal cells Hs738; parameters: method as in PMID 23632919; conditions: coculture with stromal cells; cited from earlier work
# [7] = test system: HCT-15 cocultured with stromal cells CCd-18Co; parameters: method as in PMID 23632919; conditions: coculture with stromal cells; cited from earlier work
# [8] = test system: MCF-7; assay: MTT cell viability assay, MCF-7 (2D culture); format: cell-based, human
# Method: (§1) Our first approach to assessing the anticancer activity of the novel 1,4-naphthoquinone/4-quinolone conjugates 11a–f on breast cancer cells involved comparing their effects in the MTT cell viability assay to determine the half-maximal inhibitory concentration (IC50) in the 2D cell culture model. Doxorubicin and 1,4-naphthoquinone were used as controls. Concentration-response curves were obtained with the conjugates at concentrations ranging from 0 to 200 µM. […] This observation aligns with the structural characteristics of this derivative, which features the largest alkyl substituent at position R^1.
# (§2) The IC50 values were calculated using GraphPad Prism v. 8.0.1, and the selectivity index was estimated as the ratio between the IC50 value of MCF10A/IC50 value of MDA-MB-231 or MCF-7 [33], for each compound.
# [9] = test system: MDA-MB-231; assay: MTT cell viability assay, MDA-MB-231 (2D culture); format: cell-based, human
# Method: as §1, §2
# [10] = test system: MCF-7 cells; assay: Annexin V/PI apoptosis assay, MCF-7; format: cell-based, human; conditions: 50 µM
# Method: We investigated apoptosis induction through the annexin V/PI protocol, as described in Section 3. Doxorubicin, 1,4-naphthoquinone, and cisplatin were used as controls. […] For MDA-MB-231 cells (Figure 5B), the effects observed were more prominent at the concentrations tested.
# For the apoptosis assay, the manufacturer’s instructions were followed (Dead Cell Apoptosis Kit with Annexin V for Flow Cytometry, Thermo Fisher Scientific, MA, USA). The cells were analyzed in a Countess II FL cell counter (Thermo Fisher Scientific, Waltham, MA, USA).
# Figure 5 Naphthoquinone-quinolone hybrids induce apoptosis in MCF-7 (A) and MDA-MB-231 (B) cells at different levels.
# [11] = test system: MDA-MB-231 cells; assay: Clonogenic assay, MDA-MB-231; format: cell-based, human; conditions: 25 µM, 24 h treatment, about 14 days growth
# Source text: The clonogenic assay is an effective tool for investigating individual cells’ ability to form colonies. Tumor cells with the ability to generate an expanding family of descendants are clonogenic. Therefore, a clonogenic assay is a simple method to verify one of the important characteristics of cancer cells, which is the ability to detach from the site of origin and to form metastases in other locations. […] For instance, 90–99% of the tumor cells in FaDU tumors, a type of human squamous cell carcinoma observed in nude mice, are non-clonogenic. To achieve the main goal of cancer treatment, which is tumor eradication, it is necessary to inactivate all clonogenic cells through either cell killing or the induction of a permanent state of dormancy, thereby eliminating their clonogenic capacity. The assessment of the potential of a drug to achieve a curative outcome, i.e., effectively neutralizing clonogenic tumor cells, requires the utilization of experimental endpoints that accurately reflect the response of clonogenic cells. Clonogenic endpoints hold particular significance when novel anticancer agents are incorporated into curative therapeutic regimens, such as in combination with radiotherapy or chemotherapy. Thus, clonogenic assays were conducted for compounds 11a–f and 1,4-naphthoquinone.
# Figure 6 The inhibition of colony formation by compounds 11a–f using MCF-7 (A,C) and MDA-MB-231 (B,D) cell lines. Cells were treated with derivatives 11a–f at 25 µM for 24 h. Subsequently, 400 cells were plated on 6-well plates for approximately 14 days. Then, cells were stained with crystal violet dye to visualize the colonies formed.
# [12] = test system: MCF-7 spheroids; assay: 3D-cell culture (spheroids), morphology and acid phosphatase viability, MCF-7; format: cell-based, human; conditions: 25 µM, 48 h
# Source text: 3D-cell cultures display features that resemble in vivo tumors: due to their tridimensional structure, cells are not provided with the same amounts of oxygen and nutrients in the center as on the surface, resulting in a gradient that leads to the formation of a necrotic core, similar to the in vivo tumor environment. In the 3D-cell culture model used here, spheroids are formed due to low interaction with the microplate bottom, promoted by its coating with agarose, and strong cell-to-cell interactions in MCF-7 cells, generating a finely compact and homogeneous spheroid. For MDA-MB-231 cells, the addition of collagen I is an extra stimulus necessary for spheroid stabilization. Spheroids were prepared and grown for 48 h and then treated with the compounds at 25 µM. After 48 h, morphological changes were observed, and their viabilities were measured as described in Section 3. The exposure to the compounds for 48 h promoted visible changes in the morphologies of spheroids for both cell lines when compared to the controls (Figure 8). […] While it is more complicated to imply changes in the proliferative (surface) region of the MDA-MB-231 spheroids (Figure 8B), they are observed together with morphological changes after treatment, making them appear more crumbly and lose their round shape. These findings are in line with the viability test, which detected a reduction in the viabilities for all of them, which is significant compared to the control (p < 0.05), except for 11a in MDA-MB-231 spheroids (Figure 8C,D). We should also highlight that the concentrations necessary for an effect on spheroids are expected to be higher when compared to 2D-cell culture models. Here, we observed changes using 25 µM of each compound, as performed in the other experiments.
# The procedure was performed as described by Gong et al., with a few modifications. A total of 5000 cells per well were plated on 96-well plates with bottoms previously covered with 50 µL of a 1% agarose solution. The plates were then centrifuged at 300× g for 10 min. For MDA-MB-231 cells, collagen I from rat tail (Gibco) was added to a 3 µg/mL final concentration in the cell suspension. […] The cell spheroids/aggregates were treated with fresh medium added to the compounds and their viability was evaluated after 48 h. Spheroids were photographed with an inverted microscope Bel INV-100 (Bel Engineering, Monza, Italy) equipped with a digital camera.
# To measure spheroids viability, this viability assay was performed following Friedrich et al.. The medium was removed from wells and spheroids were washed with PBS. Then, 100 µL of a solution containing 2 mg/mL p-nitrophenyl phosphate (PNPP), 0.1 M citric acid, and 0.1% (v/v) Triton X, pH 5.0 were added. […]
# [13] = test system: MDA-MB-231 spheroids; assay: 3D-cell culture (spheroids), morphology and acid phosphatase viability, MDA-MB-231; format: cell-based, human; conditions: 25 µM, vs control, p < 0.05
# Source text: 3D-cell cultures display features that resemble in vivo tumors: due to their tridimensional structure, cells are not provided with the same amounts of oxygen and nutrients in the center as on the surface, resulting in a gradient that leads to the formation of a necrotic core, similar to the in vivo tumor environment. In the 3D-cell culture model used here, spheroids are formed due to low interaction with the microplate bottom, promoted by its coating with agarose, and strong cell-to-cell interactions in MCF-7 cells, generating a finely compact and homogeneous spheroid. For MDA-MB-231 cells, the addition of collagen I is an extra stimulus necessary for spheroid stabilization. Spheroids were prepared and grown for 48 h and then treated with the compounds at 25 µM. After 48 h, morphological changes were observed, and their viabilities were measured as described in Section 3. […] These findings are in line with the viability test, which detected a reduction in the viabilities for all of them, which is significant compared to the control (p < 0.05), except for 11a in MDA-MB-231 spheroids (Figure 8C,D). […]
# The procedure was performed as described by Gong et al., with a few modifications. […] The cell spheroids/aggregates were treated with fresh medium added to the compounds and their viability was evaluated after 48 h. […]
# [14] = test system: MCF10A; assay: MTT cell viability assay, non-tumor MCF10A
# [15] = test system: MCF-7; parameters: method as in PMID 30129412; conditions: cited from earlier work
# [16] = test system: MDA-MB-231; parameters: method as in PMID 30129412; conditions: cited from earlier work
# [17] = test system: 4T1; parameters: method as in PMID 30129412; conditions: cited from earlier work
# [18] = test system: non-cancerous cell line MCF10A; parameters: method as in PMID 30129412; conditions: cited from earlier work
# [19] = test system: MCF-7 human breast cancer cells; parameters: method as in PMID 33039723; conditions: cited from earlier work
# [20] = Solubility in the culture medium (inferred from MTT curves); format: physicochemical; conditions: concentrations >25 µM
# Method: as §1
# [21] = low concentrations (<25 µM), effect plateaus above 25 µM
structure (smiles),measurement,setting,value
CC1=CC(=O)c2c(O)cccc2C1=O [plumbagin],apoptosis induction in DU145,[1],selectively induces apoptosis
same,tumor reduction,[2],90%
same,effect on RWPE-1,[3],without affecting
"CSC(=NCn1c(C/C=C(\C)CCC=C(C)C)cc(=O)c2ccccc21)SC [Compound 4, intervenolin]",IC50,[4],7 µM
same,IC50,[5],3.7 µM
same,IC50,[6],0.4 µM
same,IC50,[7],0.5 µM
"CCOC(=O)c1cn(CC)c2ccc(C3=CC(=O)c4ccccc4C3=O)cc2c1=O [Compound 11a, Ethyl 6-(1,4-dioxo-1,4-dihydronaphthalen-2-yl)-1-ethyl-4-oxo-1,4-dihydroquinoline-3-carboxylate]",IC50,"[8]; Homo sapiens, MCF7, MTT, 24 h treatment, 2D culture, read-out: IC50 ± SEM MCF-7",18.7 ± 1.1 µM
same,SI IC50 MCF10A/IC50 MCF-7,[8]; selectivity index,0.57 ± 0.12
same,IC50,"[9]; Homo sapiens, MDA-MB-231, MTT, 24 h treatment, 2D culture, read-out: IC50 ± SEM MDA-MB-231",9.16 ± 1 µM
same,SI IC50 MCF10A/ IC50 MDA-MB-231,[9]; selectivity index,1.15 ± 0.15
same,"early apoptosis induction (annexin V/PI), MCF-7",[10],comparable
same,"colony formation, MDA-MB-231",[11],most effective
same,"spheroid morphology, MCF-7",[12],changes in the morphology
same,"spheroid viability (acid phosphatase), MDA-MB-231",[13],"significant decrease was observed for all compounds, except for 11a"
same,IC50,"[14]; Homo sapiens, MCF-10A, 24 h, read-out: IC50 ± SEM MCF10A",10.6 ± 1.2 µM
same,cytotoxicity effect in MCF10A compared with doxorubicin,[14]; relative to doxorubicin,seven times lower
CCOC(=O)c1cn(CC)c2ccc(-n3cc(COC4=C(CC=C(C)C)C(=O)c5ccccc5C4=O)nn3)cc2c1=O [Compound 10],activity against MCF-7,[15],demonstrated activity
same,activity against MDA-MB-231,[16],demonstrated activity
same,activity against 4T1,[17],demonstrated activity
same,cytotoxicity against MCF10A,[18],no significant cytotoxicity
Cc1ccc(NC(=O)c2ccc(NC3=C(Cl)C(=O)c4ccccc4C3=O)cc2)nc1 [Compound 7],cytotoxicity against MCF-7,[19],high cytotoxicity
"O=C1C=C(c2ccc3c(c2)c(=O)c(C(=O)O)cn3Cc2ccccc2)C(=O)c2ccccc21 [Compound 11e, 1-benzyl-6-(1,4-dioxo-1,4-dihydronaphthalen-2-yl)-4-oxo-1,4-dihydroquinoline-3-carboxylic acid]","anticancer activity in MTT concentration-response curve, MCF-7",[8]; [21],comparable to the most active derivatives at low concentrations
same,"anticancer activity in MTT concentration-response curve, MDA-MB-231",[9]; [21],comparable to the most active derivatives at low concentrations
same,solubility in the medium,[20],low solubility
same,melting point,,> 300 °C
